ChEMBL document CHEMBL5506038, “Discovery of LC-MI-3: A Potent and Orally Bioavailable Degrader of Interleukin-1 Receptor-Associated Kinase 4 for the Treatment of Inflammatory Diseases” (J Med Chem, 2024)
Activity calls are given as the source filed them. The calls are words filed in the database; no cut-off is given here.

What was measured:
[1] = test system: Mus musculus; assay: Anti-inflammatory activity in imiquimod-induced C57BL/6 mouse psoriasis model assessed as improvement in scaling at 20 mg/kg, po administered twice daily measured for 6 days; assay type: functional, organism-based; conditions: time 6.0 day
[2] = Volume of distribution at steady state in Sprague-Dawley rat at 2 mg/kg, iv by LC-MS/MS analysis; assay type: ADME, organism-based; conditions: in vivo, read-out: Vdss
[3] = test system: Mus musculus; assay: Anti-inflammatory activity in imiquimod-induced C57BL/6 mouse psoriasis model assessed as reduction in keratinocyte proliferation at 20 mg/kg, po administered twice daily measured for 6 days by H and E staining based analysis; assay type: functional, organism-based; conditions: time 6.0 day
[4] = target: Serine/threonine-protein kinase RIO1 (Homo sapiens) (UniProt Q9BRS2); assay: Induction of RIOK1 degradation in human Caco-2 cells upto 10000 nM incubated for 12 hrs by Western blotting analysis; assay type: cell-based
Sequence of Serine/threonine-protein kinase RIO1 (Homo sapiens) (Q9BRS2 whole entry): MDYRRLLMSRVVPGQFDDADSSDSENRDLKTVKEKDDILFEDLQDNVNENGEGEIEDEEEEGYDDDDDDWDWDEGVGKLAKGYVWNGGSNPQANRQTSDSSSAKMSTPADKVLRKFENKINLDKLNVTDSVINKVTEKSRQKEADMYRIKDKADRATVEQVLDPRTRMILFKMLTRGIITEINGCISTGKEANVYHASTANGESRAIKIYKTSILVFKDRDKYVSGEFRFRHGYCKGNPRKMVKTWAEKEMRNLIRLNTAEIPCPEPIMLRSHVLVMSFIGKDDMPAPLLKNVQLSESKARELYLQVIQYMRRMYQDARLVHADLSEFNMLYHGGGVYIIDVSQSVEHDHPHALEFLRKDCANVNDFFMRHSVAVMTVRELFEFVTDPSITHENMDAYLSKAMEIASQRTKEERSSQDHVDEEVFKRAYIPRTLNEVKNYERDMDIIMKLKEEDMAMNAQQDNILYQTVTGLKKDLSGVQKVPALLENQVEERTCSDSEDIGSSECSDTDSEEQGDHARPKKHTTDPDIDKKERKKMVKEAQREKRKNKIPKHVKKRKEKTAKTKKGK

[5] = test system: Mus musculus; assay: Anti-inflammatory activity in imiquimod-induced C57BL/6 mouse psoriasis model assessed as improvement in erythema score at 20 mg/kg, po administered twice daily measured for 6 days; assay type: functional, organism-based; conditions: time 6.0 day
[6] = target: Protein cereblon/Interleukin-1 receptor-associated kinase 4 (Homo sapiens, UniProt Q9NWZ3+Q96SW2); assay: PROTAC activity at IRAK4/CRBN in human PBMC cells assessed as reduction in IRAK4 level at 100 nM incubated for 12 hrs by Western blot analysis; assay type: cell-based
Sequence of Protein cereblon/Interleukin-1 receptor-associated kinase 4 (Homo sapiens, UniProt Q9NWZ3+Q96SW2) (Q96SW2 whole entry, looked up, one chain of several): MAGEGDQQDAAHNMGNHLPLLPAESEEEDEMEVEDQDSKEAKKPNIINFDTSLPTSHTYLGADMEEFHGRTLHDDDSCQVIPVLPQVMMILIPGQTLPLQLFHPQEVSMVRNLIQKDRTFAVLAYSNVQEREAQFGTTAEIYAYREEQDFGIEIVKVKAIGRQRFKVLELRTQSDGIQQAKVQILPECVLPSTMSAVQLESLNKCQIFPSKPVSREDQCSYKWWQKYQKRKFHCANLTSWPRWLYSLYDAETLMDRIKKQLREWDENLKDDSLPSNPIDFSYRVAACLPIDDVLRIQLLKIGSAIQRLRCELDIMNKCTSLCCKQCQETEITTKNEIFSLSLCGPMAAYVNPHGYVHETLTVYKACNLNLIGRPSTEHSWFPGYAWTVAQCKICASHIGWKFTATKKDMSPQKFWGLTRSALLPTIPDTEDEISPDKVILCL

[7] = target: T1, Protein cereblon/Interleukin-1 receptor-associated kinase 4 (Mus musculus) (UniProt Q8C7D2+Q8R4K2); assay: PROTAC activity at IRAK4/CRBN in mouse RAW264.7 cells assessed as induction of IRAK4 degradation at 100 nM incubated for 12 hrs in presence of MG132 by Western blot analysis; assay type: cell-based
T1 sequence (Q8C7D2 whole entry, looked up): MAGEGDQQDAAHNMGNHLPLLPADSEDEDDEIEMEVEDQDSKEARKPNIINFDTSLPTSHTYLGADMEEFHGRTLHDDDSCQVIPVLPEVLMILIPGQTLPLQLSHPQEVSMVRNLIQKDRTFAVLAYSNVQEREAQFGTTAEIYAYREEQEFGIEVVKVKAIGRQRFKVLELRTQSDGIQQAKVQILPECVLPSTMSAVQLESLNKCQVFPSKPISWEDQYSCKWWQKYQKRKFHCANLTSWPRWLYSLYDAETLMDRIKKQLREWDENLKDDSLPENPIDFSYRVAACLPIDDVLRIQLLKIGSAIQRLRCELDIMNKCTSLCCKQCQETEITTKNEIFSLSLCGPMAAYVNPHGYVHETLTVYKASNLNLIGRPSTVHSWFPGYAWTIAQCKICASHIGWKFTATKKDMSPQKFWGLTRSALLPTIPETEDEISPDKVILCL
T1 sequence (Q8R4K2 whole entry, looked up): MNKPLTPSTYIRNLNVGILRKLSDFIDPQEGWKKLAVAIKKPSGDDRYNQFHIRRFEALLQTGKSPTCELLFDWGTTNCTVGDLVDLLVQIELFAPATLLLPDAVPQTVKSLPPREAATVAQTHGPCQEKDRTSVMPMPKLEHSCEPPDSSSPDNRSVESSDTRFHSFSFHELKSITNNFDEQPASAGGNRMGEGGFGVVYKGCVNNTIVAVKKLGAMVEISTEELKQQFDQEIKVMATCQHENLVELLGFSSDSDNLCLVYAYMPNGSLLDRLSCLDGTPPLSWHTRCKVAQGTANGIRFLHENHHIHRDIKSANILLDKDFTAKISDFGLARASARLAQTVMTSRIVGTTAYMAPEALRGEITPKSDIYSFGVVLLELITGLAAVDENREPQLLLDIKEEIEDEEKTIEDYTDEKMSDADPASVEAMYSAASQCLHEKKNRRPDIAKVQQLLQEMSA

[8] = test system: Mus musculus; assay: Anti-inflammatory activity in imiquimod-induced C57BL/6 mouse psoriasis model assessed as […] in skin thickness at 20 mg/kg, po administered twice daily measured on day 7 by H and E staining based analysis; assay type: functional, organism-based; conditions: time 7.0 day
[9] = test system: RAW264.7; assay: Protection against Escherichia coli-induced sepsis in mouse RAW264.7 cells assessed as reduction in TNF-alpha level at 1 uM pretreated with compound for 6 hrs followed by Escherichia coli-induction and measured after 6 hrs by RT-PCR analysis; assay type: functional, cell-based; conditions: time 12.0 hrs
[10] = test system: RAW264.7; assay: Protection against Escherichia coli-induced sepsis in mouse RAW264.7 cells assessed as reduction in IL-6 level at 1 uM pretreated with compound for 6 hrs followed by Escherichia coli-induction and measured after 6 hrs by RT-PCR analysis; assay type: functional, cell-based; conditions: time 12.0 hrs
[11] = AUC (0 to infinity) in Sprague-Dawley rat at 2 mg/kg, iv by LC-MS/MS analysis; assay type: ADME, organism-based; conditions: in vivo
[12] = target: MAP kinase p38 (Mus musculus) (UniProt P47811+O08911+Q9WUI1+Q9Z1B7); assay: Inhibition of MAPK phosphorylation in LPS-induced mouse RAW264.7 cells at 1 uM pretreated with compound for 1 hr followed by LPS-induction and measured after 2 hrs by Western blot analysis; assay type: cell-based; conditions: time 3.0 hrs
[13] = Half life in Sprague-Dawley rat at 2 mg/kg, iv by LC-MS/MS analysis; assay type: ADME, organism-based; conditions: in vivo
[14] = target: T2, Interleukin-1 receptor-associated kinase 4 (Homo sapiens, UniProt Q9NWZ3); assay: Inhibition of IRAK4 (unknown origin)
T2 sequence (Q9NWZ3 whole entry): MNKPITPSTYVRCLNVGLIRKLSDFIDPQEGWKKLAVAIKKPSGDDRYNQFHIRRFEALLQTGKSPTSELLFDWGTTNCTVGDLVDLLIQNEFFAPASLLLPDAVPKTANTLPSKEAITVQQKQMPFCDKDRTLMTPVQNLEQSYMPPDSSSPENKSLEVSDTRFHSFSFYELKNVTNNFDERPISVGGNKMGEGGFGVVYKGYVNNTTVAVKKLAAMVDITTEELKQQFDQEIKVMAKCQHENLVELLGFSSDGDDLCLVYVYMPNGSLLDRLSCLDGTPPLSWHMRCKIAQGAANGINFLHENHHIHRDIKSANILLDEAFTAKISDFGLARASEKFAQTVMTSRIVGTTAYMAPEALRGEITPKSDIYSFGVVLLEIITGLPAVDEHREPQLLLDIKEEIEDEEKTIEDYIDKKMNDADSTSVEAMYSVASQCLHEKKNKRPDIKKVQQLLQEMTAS

[15] = AUC (0 to infinity) in Sprague-Dawley rat at 20 mg/kg, po by LC-MS/MS analysis; assay type: ADME, organism-based; conditions: in vivo
[16] = target: T1, Protein cereblon/Interleukin-1 receptor-associated kinase 4 (Mus musculus); assay: PROTAC activity at IRAK4/CRBN in mouse RAW264.7 cells assessed as reduction in IRAK4 level at 200 nM incubated for 12 hrs by proteomic analysis; assay type: cell-based
[17] = test system: Mus musculus; assay: Anti-inflammatory activity in imiquimod-induced C57BL/6 mouse psoriasis model assessed as reduction in dermal inflammatory cell infiltration at 20 mg/kg, po administered twice daily measured for 6 days by H and E staining based analysis; assay type: functional, organism-based; conditions: time 6.0 day
[18] = test system: Mus musculus; assay: Anti-inflammatory activity against LPS-induced acute […] injury C57BL/6 mouse model assessed as reduction in TNF-alpha level in BALF at 20 mg/kg, IG pretreated with compound for 12 hrs followed by LPS-induction and measured after 6 hrs by ELISA analysis; assay type: functional, organism-based; conditions: time 18.0 hrs
[19] = test system: RAW264.7; assay: Protection against Escherichia coli-induced sepsis in mouse RAW264.7 cells assessed as reduction in TNF-alpha production at 1 uM pretreated with compound for 6 hrs followed by Escherichia coli-induction and measured after 6 hrs by ELISA analysis; assay type: functional, cell-based; conditions: time 12.0 hrs
[20] = target: T1, Protein cereblon/Interleukin-1 receptor-associated kinase 4 (Mus musculus); assay: PROTAC activity at IRAK4/CRBN in mouse BaF3 cells assessed as reduction in IRAK4 level at 100 nM incubated for 12 hrs by Western blot analysis relative to control; assay type: cell-based; parameters: scale not given: the % may be the effect or the level left
[21] = Tmax in Sprague-Dawley rat at 2 mg/kg, iv by LC-MS/MS analysis; assay type: ADME, organism-based; conditions: in vivo
[22] = Clearance in Sprague-Dawley rat at 2 mg/kg, iv by LC-MS/MS analysis; assay type: ADME, organism-based; conditions: in vivo
[23] = target: Protein cereblon/Interleukin-1 receptor-associated kinase 4 (Mus musculus, UniProt Q8C7D2+Q8R4K2); assay: PROTAC activity at IRAK4/CRBN in mouse RAW264.7 cells assessed as reduction in IRAK4 level incubated for 12 hrs by Western blot analysis; assay type: cell-based
Sequence of Protein cereblon/Interleukin-1 receptor-associated kinase 4 (Mus musculus, UniProt Q8C7D2+Q8R4K2) (Q8C7D2 whole entry): as the sequence (Q8C7D2 whole entry, looked up) above
Sequence of Protein cereblon/Interleukin-1 receptor-associated kinase 4 (Mus musculus, UniProt Q8C7D2+Q8R4K2) (Q8R4K2 whole entry): as the sequence (Q8R4K2 whole entry, looked up) above

[24] = test system: RAW264.7; assay: Effect on TNFalpha mRNA expression in LPS-induced mouse RAW264.7 cells at 1 uM pretreated with compound for 1 hr followed by LPS-induction and measured after 6 hrs by RT-PCR analysis; assay type: functional, cell-based; conditions: time 7.0 hrs
[25] = test system: RAW264.7; assay: Effect on IL-6 mRNA expression in LPS-induced mouse RAW264.7 cells at 1 uM pretreated with compound for 1 hr followed by LPS-induction and measured after 6 hrs by RT-PCR analysis; assay type: functional, cell-based; conditions: time 7.0 hrs
[26] = test system: Mus musculus; assay: Anti-inflammatory activity against LPS-induced acute […] injury C57BL/6 mouse model assessed as reduction in IL-6 level in lung at 20 mg/kg, IG pretreated with compound for 12 hrs followed by LPS-induction and measured after 6 hrs by RT-PCR analysis; assay type: functional, organism-based; conditions: time 18.0 hrs
[27] = Toxicity in C57BL/6 mouse assessed as effect on body weight at 20 mg/kg, po measured for 6 days; assay type: organism-based; conditions: in vivo, 144 h, time 6 day

COc1cc(N2CCN(C(=O)CCOCC#Cc3ccc4c(c3)C(=O)N(C3CCC(=O)NC3=O)C4=O)CC2)ccc1NC(=O)c1cccc(-c2ccn[nH]2)n1 (configuration not stated)
Activity [1]: Active | Vd [2]: 0.584 L/kg | Activity [3]: Active | Activity [4]: inactive | Activity [5]: Active | Activity [6]: Active | Activity [7]: Active | Activity [8]: Active | Activity [9]: Active | Activity [10]: Active | AUC(0-inf) [11]: 1330 ng·h/mL | inhibition [12]: Active | half-life [13]: 29.2 min | IC50 [14]: < 100 nM | AUC(0-inf) [15]: 1080 ng·h/mL | Activity [16]: Active | Activity [17]: Active | Activity [18]: Active | Activity [19]: Active | Activity [20]: 15% | Tmax [21]: 4.98 min | clearance [22]: 25.6 mL/min/kg | DC50 [23]: 47.4 nM | Activity [24]: Active | Activity [25]: Active | Activity [26]: Active | Activity [27]: Non-Toxic
